Results: US20250129344A1, “MODIFIED GLUTAMATE DEHYDROGENASE AND APPLICATION THEREOF” (Hunan Lier Biotech Co., Ltd., priority 2021, published 2025)

Tests used:
Test in all cases: Dynamic properties (Michaelis-Menten) of BvGluDH mutant, PPO reductive amination
Assay type in all cases: biochemical
Conditions in all cases: PPO 5-100 mM, NADPH 0.15 mM, NH4Cl 50 mM, PBS pH 7.5, 30° C., diluted crude enzyme, 340 nm
[1] = test system: Bacillus velezensis glutamate dehydrogenase (BvGluDH, SEQ ID NO: 1) variant A175G, SEQ ID NO: 3
Method: (§1) A plurality of reaction systems (200 μL) comprising PBS of 100 mM pH 7.5 (pH was adjusted with aqueous ammonia solution), NADPH (reductive) of 0.15 mM, NH4Cl of 50 mM, diluted (500 folds) crude enzyme solution of 10% volume and the substrate PPO at various concentrations (5-100 mM) were formulated on a 96-well plate. The intensity of the UV absorption at 340 nm was detected at 30° C., and the rate of change in absorption over time (mA/min) was recorded. The obtained parameters were plugged into Michaelis-Menten equation, in which the reaction velocity was calculated with the rate of change in absorption.
(§2) The mutants were prepared with the coding nucleic acid of BvGluDH (SEQ ID NO: 1) as the template, and the enzyme activities and the dynamic parameters Vmax and Km were measured, according to the method of Example 1. The resulted mutants and the enzyme activities and the dynamic parameters thereof are shown in Table 1, and the relative enzyme activity means the percentage of the enzyme activity of the mutant to the enzyme activity of the mutant of SEQ ID NO: 3.

[2] = test system: Bacillus velezensis glutamate dehydrogenase (BvGluDH, SEQ ID NO: 1) variant A175G-A182R, SEQ ID NO: 11
Method: as §1, §2

[3] = test system: Bacillus velezensis glutamate dehydrogenase (BvGluDH, SEQ ID NO: 1) variant A175G-G181K, SEQ ID NO: 9
Method: as §1, §2

[4] = test system: Bacillus velezensis glutamate dehydrogenase (BvGluDH, SEQ ID NO: 1) variant A175G-G181R, SEQ ID NO: 10
Method: as §1, §2

[5] = test system: Bacillus velezensis glutamate dehydrogenase (BvGluDH, SEQ ID NO: 1) variant A175G-I133V, SEQ ID NO: 6
Method: as §1, §2

[6] = test system: Bacillus velezensis glutamate dehydrogenase (BvGluDH, SEQ ID NO: 1) variant A175G-L104C, SEQ ID NO: 4
Method: as §1, §2

[7] = test system: Bacillus velezensis glutamate dehydrogenase (BvGluDH, SEQ ID NO: 1) variant A175G-P132L, SEQ ID NO: 5
Method: as §1, §2

[8] = test system: Bacillus velezensis glutamate dehydrogenase (BvGluDH, SEQ ID NO: 1) variant A175G-V173G, SEQ ID NO: 8
Method: as §1, §2

[9] = test system: Bacillus velezensis glutamate dehydrogenase (BvGluDH, SEQ ID NO: 1) variant A175G-V173G-A182R, SEQ ID NO: 21
Method: as §1, §2

[10] = test system: Bacillus velezensis glutamate dehydrogenase (BvGluDH, SEQ ID NO: 1) variant A175G-V173S, SEQ ID NO: 7
Method: as §1, §2

CP(=O)(O)CCC(=O)C(=O)O [PPO, 2-carbonyl-4-(hydroxymethylphosphono) butyric acid]
Km [1]: 73 mM | Vmax [1]: 60 mA/min | Km [2]: 46 mM | Vmax [2]: 61 mA/min | Km [3]: 80 mM | Vmax [3]: 70 mA/min | Km [4]: 84 mM | Vmax [4]: 77 mA/min | Km [5]: 43 mM | Vmax [5]: 59 mA/min | Km [6]: 34 mM | Vmax [6]: 60 mA/min | Km [7]: 32 mM | Vmax [7]: 56 mA/min | Km [8]: 53 mM | Vmax [8]: 80 mA/min | Km [9]: 23 mM | Vmax [9]: 71 mA/min | Km [10]: 52 mM | Vmax [10]: 79 mA/min
